Measurements as given in PubChem BioAssay (NCI).
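Where inhibition never reached the appropriate level, the endpoint shown equals the highest concentration tested. Otherwise, values were interpolated linearly from a five-concentration, 48-hour dose response in 96-well plates. At the TGI there is no net growth.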

How the values were obtained:
Test in all cases: NCI-60 cell line screen, 48 h
UACC-257 melanoma = system: UACC-257 melanoma
PC-3 prostate = system: PC-3 prostate
OVCAR-8 ovarian = system: OVCAR-8 ovarian
TK-10 renal = system: TK-10 renal
MOLT-4 leukemia = system: MOLT-4 leukemia
786-0 renal = system: 786-0 renal
SK-MEL-2 melanoma = system: SK-MEL-2 melanoma
XF 498 CNS = system: XF 498 CNS
HT29 colon = system: HT29 colon
MDA-MB-435 = system: MDA-MB-435
DU-145 prostate = system: DU-145 prostate
SK-OV-3 ovarian = system: SK-OV-3 ovarian
DMS 114 small cell lung = system: DMS 114 small cell lung
UACC-62 melanoma = system: UACC-62 melanoma
OVCAR-4 ovarian = system: OVCAR-4 ovarian
RXF 393 renal = system: RXF 393 renal
OVCAR-5 ovarian = system: OVCAR-5 ovarian
M19-MEL melanoma = system: M19-MEL melanoma
SF-295 CNS = system: SF-295 CNS
DMS 273 small cell lung = system: DMS 273 small cell lung
UO-31 renal = system: UO-31 renal
M14 melanoma = system: M14 melanoma
BT-549 breast = system: BT-549 breast
HOP-92 NSCLC = system: HOP-92 NSCLC
IGROV1 ovarian = system: IGROV1 ovarian
EKVX NSCLC = system: EKVX NSCLC
MDA-MB-231 breast = system: MDA-MB-231 breast
COLO 205 colon = system: COLO 205 colon
NCI/ADR-RES ovarian = system: NCI/ADR-RES ovarian
NCI-H522 lung = system: NCI-H522 lung
HOP-62 NSCLC = system: HOP-62 NSCLC
U251 CNS = system: U251 CNS
SF-268 CNS = system: SF-268 CNS
DLD-1 colon = system: DLD-1 colon
MALME-3M melanoma = system: MALME-3M melanoma
K-562 leukemia = system: K-562 leukemia
SNB-19 CNS = system: SNB-19 CNS
SR leukemia = system: SR leukemia
SK-MEL-5 melanoma = system: SK-MEL-5 melanoma
SW-620 colon = system: SW-620 colon
T-47D breast = system: T-47D breast
HCT-116 colon = system: HCT-116 colon
HCC-2998 colon = system: HCC-2998 colon
KM20L2 colon = system: KM20L2 colon
NCI-H226 lung = system: NCI-H226 lung
HL-60(TB) leukemia = system: HL-60(TB) leukemia
HCT-15 colon = system: HCT-15 colon
A549 NSCLC = system: A549 NSCLC
RPMI-8226 leukemia = system: RPMI-8226 leukemia
CAKI-1 renal = system: CAKI-1 renal
SN12C renal = system: SN12C renal
NCI-H460 lung = system: NCI-H460 lung
HOP-18 NSCLC = system: HOP-18 NSCLC
MDA-N = system: MDA-N
ACHN renal = system: ACHN renal
NCI-H23 lung = system: NCI-H23 lung
OVCAR-3 ovarian = system: OVCAR-3 ovarian
SK-MEL-28 melanoma = system: SK-MEL-28 melanoma
KM12 colon = system: KM12 colon
SNB-78 CNS = system: SNB-78 CNS
SF-539 CNS = system: SF-539 CNS
LXFL 529 NSCLC = system: LXFL 529 NSCLC
MCF7 breast = system: MCF7 breast
LOX IMVI melanoma = system: LOX IMVI melanoma
CCRF-CEM leukemia = system: CCRF-CEM leukemia
A498 renal = system: A498 renal

## C[C@]12CC[C@@H]3c4ccc(O)cc4CC[C@H]3[C@@H]1CC[C@@H]2OC(=O)CCC1CCCC1
UACC-257 melanoma
  TGI: > 57.7 µM
PC-3 prostate
  TGI: 31.3 µM
OVCAR-8 ovarian
  TGI: 31.7 µM
TK-10 renal
  TGI: 48.4 µM
MOLT-4 leukemia
  TGI: 35.2 µM
786-0 renal
  TGI: 29.9 µM
SK-MEL-2 melanoma
  TGI: > 56.4 µM
XF 498 CNS
  TGI: 40.9 µM
HT29 colon
  TGI: 32 µM
MDA-MB-435
  TGI: 21.7 µM
DU-145 prostate
  TGI: 26.9 µM
SK-OV-3 ovarian
  TGI: 38.3 µM
DMS 114 small cell lung
  TGI: 85.9 µM
UACC-62 melanoma
  TGI: 27.5 µM
OVCAR-4 ovarian
  TGI: 32 µM
RXF 393 renal
  TGI: 28.3 µM
OVCAR-5 ovarian
  TGI: > 57.2 µM
M19-MEL melanoma
  TGI: 67.9 µM
SF-295 CNS
  TGI: 31.8 µM
DMS 273 small cell lung
  TGI: 27.7 µM
UO-31 renal
  TGI: 35.3 µM
M14 melanoma
  TGI: 43.4 µM
BT-549 breast
  TGI: 32.7 µM
HOP-92 NSCLC
  TGI: 47.7 µM
IGROV1 ovarian
  TGI: 33.4 µM
EKVX NSCLC
  TGI: 21 µM
MDA-MB-231 breast
  TGI: 32.2 µM
COLO 205 colon
  TGI: 33.9 µM
NCI/ADR-RES ovarian
  TGI: 32.9 µM
NCI-H522 lung
  TGI: 32.6 µM
HOP-62 NSCLC
  TGI: 33.9 µM
U251 CNS
  TGI: 33.5 µM
SF-268 CNS
  TGI: 41.1 µM
DLD-1 colon
  TGI: 98.6 µM
MALME-3M melanoma
  TGI: 55.3 µM
K-562 leukemia
  TGI: 35.2 µM
SNB-19 CNS
  TGI: 31.3 µM
SR leukemia
  TGI: 39.3 µM
SK-MEL-5 melanoma
  TGI: 33.4 µM
SW-620 colon
  TGI: 38.1 µM
T-47D breast
  TGI: 28.4 µM
HCT-116 colon
  TGI: 31.1 µM
HCC-2998 colon
  TGI: 37.8 µM
KM20L2 colon
  TGI: 33.1 µM
NCI-H226 lung
  TGI: 36.6 µM
HL-60(TB) leukemia
  TGI: 34.8 µM
HCT-15 colon
  TGI: 33.8 µM
A549 NSCLC
  TGI: 32.2 µM
RPMI-8226 leukemia
  TGI: 38.3 µM
CAKI-1 renal
  TGI: 33.2 µM
SN12C renal
  TGI: 31.2 µM
NCI-H460 lung
  TGI: 36.3 µM
HOP-18 NSCLC
  TGI: 59.6 µM
MDA-N
  TGI: 20.2 µM
ACHN renal
  TGI: 55.5 µM
NCI-H23 lung
  TGI: 34.6 µM
OVCAR-3 ovarian
  TGI: 30.1 µM
SK-MEL-28 melanoma
  TGI: 34.2 µM
KM12 colon
  TGI: > 56.8 µM
SNB-78 CNS
  TGI: > 100 µM
SF-539 CNS
  TGI: 40.5 µM
LXFL 529 NSCLC
  TGI: 32.1 µM
MCF7 breast
  TGI: 31 µM
LOX IMVI melanoma
  TGI: 35.6 µM
CCRF-CEM leukemia
  TGI: 38.4 µM
A498 renal
  TGI: 38.8 µM
